Columns and labels:
Assay type in all cases: cell-based
cervical cancer cells = experiment: Anticancer testing, inhibition of cervical cancer cells, 5% foetal calf serum medium; conditions: 5% foetal calf serum as medium
colon cancer cells = experiment: Anticancer testing, inhibition of colon cancer cells, medium containing 10 mM glutathione; conditions: 100 μM
breast cancer = experiment: Anticancer testing, inhibition on breast cancer, medium containing 10 mM glutathione; conditions: 100 μM solution

| SMILES | percentage inhibition on cervical cancer cells (cervical cancer cells; 10 μM solution) [%] | percentage inhibition on cervical cancer cells (cervical cancer cells; 100 μM solution) [%] | inhibition of colon cancer cells (colon cancer cells) [%] | inhibition on breast cancer (breast cancer) [%] |
| --- | --- | --- | --- | --- |
| CSCCCc1nccn1C.O=C([O-])C(=O)[O-].[Pt+2] [Example 6, oxalato(1-methyl-2-methylthiopropylimidazole)platinum(II)] | 88.6 | 97.7 | 85 | 72 |
| N.N.[Cl][Pt][Cl] [cisplatin] | 85.4 | 95.3 | 48 | 10 |

Source: patent US7888390B2, “Preparation of platinum(II) complexes” (Platco Technologies (Proprietary) Limited, priority 2003, dated 2011)
